Measurements taken from DBAASP.
In brackets after ≈: the same amount, converted by molar mass. Several values for one entry are separate records, joined by “and”; a condition that tells them apart may be missing. Equal values may be shown once.

Key:
Test in all cases: ≥ marks a high value that may be exact or a test limit, other limits are often not marked, values filed in µg/mL are converted to µM
[1] = tested on: Limosilactobacillus fermentum A1753
[2] = tested on: Streptococcus sanguinis ATCC 10556
[3] = tested on: Limosilactobacillus fermentum ATCC 9338
[4] = tested on: Staphylococcus aureus ATCC 6538
[5] = tested on: Streptococcus sanguinis JCM 5708
[6] = tested on: Enterococcus faecalis ATCC 29212
[7] = tested on: Streptococcus gordonii DL1
[8] = tested on: Actinomyces naeslundii ATCC 12104
[9] = tested on: Streptococcus salivarius ATCC 13419
[10] = tested on: Lacticaseibacillus casei ATCC 393
[11] = tested on: Streptococcus sobrinus 6715
[12] = tested on: Lactobacillus acidophilus ATCC 14931
[13] = tested on: Streptococcus mutans UA159
[14] = tested on: Streptococcus gordonii ATCC 35105
[15] = tested on: Lactobacillus acidophilus ATCC 53544
[16] = tested on: Streptococcus salivarius ATCC 27945
[17] = tested on: Staphylococcus aureus ATCC 9144
[18] = tested on: Staphylococcus aureus MR
[19] = tested on: Klebsiella pneumoniae ATCC 27736
[20] = tested on: Escherichia coli ATCC 10536
[21] = tested on: Cryptococcus neoformans
[22] = tested on: Sporothrix schenckii
[23] = tested on: Candida parapsilosis ATCC 22019
[24] = tested on: Bacillus subtilis ATCC 6633
[25] = tested on: Pseudomonas aeruginosa ATCC BAA-427
[26] = tested on: Staphylococcus epidermidis NRRL B-4268
[27] = tested on: Aspergillus fumigatus
[28] = tested on: Trichophyton mentagrophytes
[29] = tested on: Candida albicans
[30] = tested on: Pseudomonas aeruginosa ATCC 13388
[31] = tested on: Salmonella enterica subsp. enterica serovar Typhimurium ATCC 14028
[32] = tested on: Klebsiella pneumoniae ATCC 10031
[33] = tested on: Escherichia coli ATCC 11219
[34] = tested on: Pectobacterium carotovorum
[35] = tested on: Franconibacter helveticus DSM 18396
[36] = tested on: Kocuria rhizophila DSM 348
[37] = tested on: Escherichia coli DH5alpha
[38] = tested on: Bacillus subtilis DSM 347
[39] = tested on: Staphylococcus epidermidis KCTC 3096
[40] = tested on: Candida albicans TIMM 1768
[41] = tested on: Bacillus subtilis KCTC 1918
[42] = tested on: Trichosporon beigelii KCTC 7707
[43] = tested on: Salmonella typhimurium KCTC 1926
[44] = tested on: Pseudomonas aeruginosa KCTC 1637
[45] = tested on: Candida albicans CCARM 14020
[46] = tested on: Candida albicans CCARM 14021
[47] = tested on: Candida albicans CCARM 14022
[48] = tested on: Candida albicans SC5314

With `CC(C)C[C@H](NC(=O)CN)C(=O)N[C@@H](CC(C)C)C(=O)N[C@@H](Cc1c[nH]c2ccccc12)C(=O)N[C@@H](Cc1cnc[nH]1)C(=O)N[C@@H](CC(C)C)C(=O)N[C@@H](CC(C)C)C(=O)N[C@@H](Cc1cnc[nH]1)C(=O)N[C@@H](Cc1cnc[nH]1)C(=O)N[C@@H](CC(C)C)C(=O)N[C@@H](CC(C)C)C(=O)N[C@@H](Cc1cnc[nH]1)C(N)=O` [GLLWHLLHHLLH] the MIC [1] was 2.02 µM and 3.14 µM, the MIC [2] was 5.37 µM (≈ 7.99 µg/mL) and the MIC [3] was 2.69 µM (≈ 4 µg/mL). For the same compound, the MIC [4] was 7.17 µM and 14.3 µM, the MIC [5] was 5.37 µM and 10.7 µM and the MIC [6] was 25.1 µM and 50.2 µM. It also gave an MIC [7] of 5.37 µM (≈ 7.99 µg/mL), an MIC [8] of 2.69 µM (≈ 4 µg/mL) and an MIC [9] of 5.37 µM (≈ 7.99 µg/mL). For the same compound, the MIC [10] was 2.69 µM and 3.14 µM and 6.27 µM, the MIC [11] was 10.7 µM and 4.03 µM and 8.06 µM and the MIC [12] was 2.69 µM (≈ 4 µg/mL). For the same compound, the MIC [13] was 4.5 µM and 4.48 µM and 6.27 µM, the MIC [14] was 10.7 µM and 21.5 µM and the MIC [15] was 3.14 µM and 4.92 µM. The MIC [16] was 2.47 µM and 4.92 µM.

An MIC [17] of 6.25 µM (≈ 11.4 µg/mL), an MIC [18] of 25 µM (≈ 45.6 µg/mL) and an MIC [19] of 25 µM (≈ 45.6 µg/mL) were found for `CC(C)C[C@H](NC(=O)[C@H](C)NC(=O)[C@H](CCCN=C(N)N)NC(=O)[C@H](CCCN=C(N)N)NC(=O)[C@H](C)NC(=O)[C@H](Cc1c[nH]c2ccccc12)NC(=O)[C@H](CCCCN)NC(=O)[C@H](CCCN=C(N)N)NC(=O)[C@H](C)NC(=O)[C@H](CCCN=C(N)N)NC(=O)[C@H](CCCN=C(N)N)NC(=O)[C@H](C)N)C(=O)N[C@@H](CCCCN)C(=O)N[C@@H](CC(C)C)C(=O)N[C@@H](C)C(N)=O` [ARRARKWARRALKLA] in this work. It also gave an MIC [20] of 4.5 µM (≈ 8.2 µg/mL), an MIC [21] of 25 µM (≈ 45.6 µg/mL) and an MIC [22] of 25 µM (≈ 45.6 µg/mL). The MIC [23] was 25 µM (≈ 45.6 µg/mL), the MIC [24] was 20 µM (≈ 36.4 µg/mL) and the MIC [25] was 6.25 µM (≈ 11.4 µg/mL). For the same compound, the MIC [26] was 8 µM (≈ 14.6 µg/mL), the MIC [27] was 25 µM (≈ 45.6 µg/mL) and the MIC [28] was 25 µM (≈ 45.6 µg/mL). For the same compound, the MIC [29] was > 25 µM.

In the case of `CC[C@H](C)[C@H](NC(=O)CN)C(=O)N[C@@H](Cc1cnc[nH]1)C(=O)N[C@@H](CC(=O)O)C(=O)N[C@H](C(=O)N[C@@H](CC(C)C)C(=O)N[C@@H](CCCCN)C(=O)N[C@@H](Cc1ccc(O)cc1)C(=O)NCC(=O)N[C@@H](C)C(=O)N1CCC[C@H]1C(=O)N[C@@H](CO)C(N)=O)[C@@H](C)CC` [GIHDILKYGAPS], the MIC [4] is reported as 20 µM (≈ 25.4 µg/mL), the MIC [30] is reported as ≥ 50 µM and the MIC [31] is reported as > 50 µM. The MIC [32] was 10 µM (≈ 12.7 µg/mL) and the MIC [33] was 15 µM (≈ 19 µg/mL).

An MIC [34] of 4.47 µM (≈ 10.7 µg/mL) was found for `CC(C)C[C@H](NC(=O)[C@H](CC(N)=O)NC(=O)[C@H](Cc1ccc(O)cc1)NC(=O)[C@@H]1CCCN1C(=O)[C@@H]1CCCN1)C(=O)N[C@@H](CC(N)=O)C(=O)N[C@@H](CO)C(=O)N[C@@H](Cc1cnc[nH]1)C(=O)N[C@H](C(=O)N[C@@H](CCC(N)=O)C(=O)N[C@@H](CCC(=O)O)C(=O)N[C@@H](Cc1ccc(O)cc1)C(=O)N[C@@H](CO)C(=O)N[C@@H](CCCCN)C(=O)N1CCC[C@H]1C(=O)N[C@@H](CCC(=O)O)C(=O)N[C@@H](CC(=O)O)C(=O)N[C@H](C(=O)N[C@@H](Cc1ccccc1)C(=O)N[C@@H](CC(=O)O)C(=O)O)[C@@H](C)O)[C@@H](C)O` [PPYNLNSHTQEYSKPEDTFD] in this work.

With `CC[C@H](C)[C@H](NC(=O)CN)C(=O)NCC(=O)N[C@@H](CCCCN)C(=O)N[C@@H](Cc1ccccc1)C(=O)N[C@@H](CC(C)C)C(=O)N[C@@H](Cc1cnc[nH]1)C(=O)N[C@@H](CO)C(=O)N[C@@H](C)C(=O)N[C@@H](CCCCN)C(=O)N[C@@H](CCCCN)C(=O)N[C@@H](Cc1ccccc1)C(=O)NCC(=O)N[C@@H](CCCCN)C(=O)N[C@@H](C)C(=O)N[C@@H](C)C(=O)N[C@H](C(=O)NCC(=O)N[C@@H](CCC(=O)O)C(=O)N[C@H](C(=O)N[C@@H](CCSC)C(=O)N[C@@H](CC(N)=O)C(=O)N[C@@H](CO)C(=O)O)[C@@H](C)CC)C(C)C` [GIGKFLHSAKKFGKAAVGEIMNS] the MIC [35] was ≥ 128 µM, the MIC [36] was 4 µM (≈ 9.56 µg/mL) and the MIC [37] was ≥ 128 µM. The MIC [38] was 16 µM (≈ 38.3 µg/mL).

An MIC [39] of 3.12 µM (≈ 6.52 µg/mL), an MIC [40] of 12.5 µM (≈ 26.1 µg/mL) and an MIC [41] of 3.12 µM (≈ 6.52 µg/mL) were found for `CC[C@H](C)[C@H](NC(=O)CNC(=O)[C@@H](NC(=O)[C@H](CCCCN)NC(=O)[C@H](CCCCN)NC(=O)[C@H](Cc1ccccc1)NC(=O)[C@H](CC(C)C)NC(=O)[C@H](CCCCN)NC(=O)[C@H](Cc1c[nH]c2ccccc12)NC(=O)[C@@H](N)CCCCN)[C@@H](C)CC)C(=O)NCC(=O)N[C@@H](CCCCN)C(=O)N[C@@H](Cc1ccccc1)C(=O)N[C@@H](CC(C)C)C(=O)N[C@@H](CCCCN)C(=O)N[C@@H](CCCCN)C(=O)N[C@@H](CCCCN)C(N)=O` [KWKLFKKIGIGKFLKKK] in this work. For the same compound, the MIC [42] was 6.25 µM (≈ 13.1 µg/mL), the MIC [43] was 0.19 µM (≈ 0.397 µg/mL) and the MIC [44] was 2.21 µM (≈ 4.61 µg/mL).

An MIC [45] of 7.51 µM (≈ 11.3 µg/mL), an MIC [46] of 21.2 µM (≈ 32 µg/mL) and an MIC [47] of 21.2 µM (≈ 32 µg/mL) were found for `CC(C)C[C@H](NC(=O)[C@H](C)N)C(=O)N[C@@H](CC(C)C)C(=O)N[C@@H](Cc1cnc[nH]1)C(=O)N[C@@H](Cc1cnc[nH]1)C(=O)NCC(=O)N[C@@H](Cc1ccc(O)cc1)C(=O)N[C@@H](CCCCN)C(=O)N[C@@H](CCCN=C(N)N)C(=O)N[C@@H](CCCCN)C(=O)N[C@@H](Cc1ccccc1)C(=O)N[C@@H](Cc1cnc[nH]1)C(N)=O` [ALLHHGYKRKFH] in this work. For the same compound, the MIC [48] was 15 µM (≈ 22.6 µg/mL).
